This passage reports IC50 results from ChEMBL document CHEMBL4834472 (J Med Chem, 2021).

One experiment has as its target CDK2/Cyclin A1 (Homo sapiens, UniProt P24941). It is filed as protein-complex assay.
In experiment [1] the target is Receptor-type tyrosine-protein kinase FLT3 (Homo sapiens, UniProt P36888, ITD).
The next experiment concerns K562. The experiment is described as follows: cells. Particulars: Homo sapiens, K562, 72 h.
Another experiment deals with MV4-11. The experiment is described as follows: cells. Particulars: Homo sapiens, MV4-11, 72 h.

The IC50 is the point on the concentration scale where inhibition reaches its midpoint. High values mean a need for much substance, low ones inhibition by little substance.

Receptor-type tyrosine-protein kinase FLT3, sequence (P36888 whole entry, looked up, change not shown): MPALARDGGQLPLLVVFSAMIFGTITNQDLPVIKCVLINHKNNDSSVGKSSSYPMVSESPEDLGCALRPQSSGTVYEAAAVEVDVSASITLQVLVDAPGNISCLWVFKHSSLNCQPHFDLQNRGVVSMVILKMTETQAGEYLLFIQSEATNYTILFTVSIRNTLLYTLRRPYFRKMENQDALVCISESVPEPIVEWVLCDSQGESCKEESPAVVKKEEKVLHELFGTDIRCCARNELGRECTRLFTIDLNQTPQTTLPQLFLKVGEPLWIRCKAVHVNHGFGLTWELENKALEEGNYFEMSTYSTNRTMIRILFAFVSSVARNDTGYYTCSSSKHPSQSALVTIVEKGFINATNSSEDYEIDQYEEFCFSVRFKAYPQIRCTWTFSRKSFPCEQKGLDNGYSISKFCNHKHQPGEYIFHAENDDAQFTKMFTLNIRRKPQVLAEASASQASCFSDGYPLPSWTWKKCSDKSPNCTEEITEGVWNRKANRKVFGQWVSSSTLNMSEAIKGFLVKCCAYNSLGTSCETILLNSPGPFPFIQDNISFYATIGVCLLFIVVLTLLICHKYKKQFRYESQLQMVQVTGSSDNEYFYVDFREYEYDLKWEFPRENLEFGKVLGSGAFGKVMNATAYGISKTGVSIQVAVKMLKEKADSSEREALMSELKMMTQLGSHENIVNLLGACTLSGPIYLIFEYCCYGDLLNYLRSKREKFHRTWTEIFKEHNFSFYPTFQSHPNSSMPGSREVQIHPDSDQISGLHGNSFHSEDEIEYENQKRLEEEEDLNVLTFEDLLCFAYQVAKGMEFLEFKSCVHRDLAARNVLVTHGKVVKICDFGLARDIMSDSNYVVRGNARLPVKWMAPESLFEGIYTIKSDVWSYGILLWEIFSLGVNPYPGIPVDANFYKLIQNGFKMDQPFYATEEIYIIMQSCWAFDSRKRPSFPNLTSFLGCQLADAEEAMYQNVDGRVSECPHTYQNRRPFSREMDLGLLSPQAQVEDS
Description for CDK2/Cyclin A1: Inhibition of CDK2/Cyclin A1 (unknown origin) at 1 uM using histone H1 as substrate preincubated for 20 mins followed by 33P-ATP addition and measured after 2 hrs by filter binding method
Description for K562: Antiproliferative activity against human K562 cells assessed as cell death measured after 72 hrs by resazurin dye based assay
Description for MV4-11: Antiproliferative activity against human MV4-11 cells assessed as cell death measured after 72 hrs by resazurin dye based assay

In the case of `Cc1n[nH]c(C)c1-c1nc2ccc3[nH]ncc3c2c2c1CCCC2`, the IC50 was 107 nM against CDK2/Cyclin A1, 194 nM in experiment [1], 8730 nM in the experiment on K562 and 514 nM with MV4-11.
The like results for `NCC1CCc2c(c(-c3c[nH]nc3C(F)(F)F)nc3c(F)cc4[nH]ncc4c23)C1` (stereo not given) were, in that order, 58 nM, 19 nM, 16000 nM and 740 nM.
On to `FC(F)(F)c1n[nH]cc1-c1cc(-c2ccncc2)c2c(ccc3[nH]ncc32)n1`, for which the 50% inhibitory concentration (IC50) was determined as 823 nM on CDK2/Cyclin A1, 2990 nM in experiment [1], 76800 nM in the experiment with K562 and 3620 nM in the experiment with MV4-11.
For `FC(F)(F)c1n[nH]cc1-c1nc2ccc3[nH]ncc3c2c2c1CC(C(F)(F)F)CC2` (stereo not given) the same measures were 139 nM, 126 nM, 8100 nM and 14 nM.
Consider `FC(F)(F)c1n[nH]cc1-c1nc2ccc3[nH]ncc3c2c2c1COCC2`, for which the concentration for half-maximal inhibition (IC50) against CDK2/Cyclin A1 was 190 nM; in experiment [1] it was 109 nM; with K562 it was 9250 nM; in the experiment with MV4-11, 92 nM.
For `CC(C)c1nn(C)cc1-c1nc2ccc3[nH]ncc3c2c2c1CCCC2`, the IC50 against CDK2/Cyclin A1 worked out at 1450 nM; in experiment [1] it was 3840 nM; in the experiment with K562, 77500 nM; with MV4-11 it was 1400 nM.
Take `FC(F)(F)c1n[nH]cc1-c1nc2ccc3[nH]nc(Cl)c3c2c2c1CCCCC2`: the half-maximal inhibitory concentration (IC50) on CDK2/Cyclin A1 is 1720 nM; in experiment [1], 34 nM; in the experiment with K562, over 100000 nM; in the experiment on MV4-11, 2010 nM.
With `FC(F)(F)c1ccc(-c2cc(-c3c[nH]nc3C(F)(F)F)nc3ccc4[nH]ncc4c23)cc1`, the IC50 against CDK2/Cyclin A1 is 8240 nM; in experiment [1] it was over 20000 nM; in the experiment on K562, over 100000 nM; with MV4-11 it was over 100000 nM.
For the compound `CN1CCN(C2CCc3c(c(-c4c[nH]nc4C(F)(F)F)nc4ccc5[nH]ncc5c34)C2)CC1` (stereo not given), the half-maximal inhibitory concentration (IC50) on CDK2/Cyclin A1 is 266 nM; in experiment [1], 141 nM; in the experiment on K562, 19100 nM; in the experiment on MV4-11 it was 440 nM.
Consider `CCc1cnn2c(NCc3ccc[n+]([O-])c3)cc(N3CCCC[C@H]3CCO)nc12` [DINACICLIB], for which the results for the 50% inhibitory concentration (IC50) (in experiment [1]; with K562; with MV4-11) were over 2000 nM, 13 nM and 7 nM, respectively.
For `Cc1n[nH]cc1-c1nc2ccc3[nH]nc(C)c3c2c2c1CCCC2`, the IC50 at CDK2/Cyclin A1 amounted to 717 nM; in experiment [1] it was 42 nM; in the experiment with K562, 21100 nM; with MV4-11 it was 687 nM.
The like results for `FC(F)(F)c1n[nH]cc1-c1cc(C2CC2)c2c(ccc3[nH]ncc32)n1` were, in that order, 87 nM, 368 nM, 78900 nM and 980 nM.
The like results for `N#Cc1n[nH]c2ccc3nc(-c4c[nH]nc4C(F)(F)F)c4c(c3c12)CCCC4` were, in that order, over 20000 nM, over 20000 nM, over 100000 nM and over 100000 nM.
`CC(C)c1n[nH]cc1-c1nc2ccc3[nH]ncc3c2c2c1CCCC2`: the IC50 against CDK2/Cyclin A1 is 88 nM; in experiment [1] it was 212 nM; in the experiment with K562 it was 11100 nM; with MV4-11, 610 nM.
On to `CN1CCN(CC#Cc2n[nH]c3ccc4nc(-c5c[nH]nc5C(F)(F)F)c5c(c4c23)CCCC5)CC1`, for which the IC50 against CDK2/Cyclin A1 came to 10000 nM; in experiment [1] it was 18 nM; in the experiment with K562, 24800 nM; in the experiment on MV4-11, 459 nM.
In the case of `c1[nH]nnc1-c1nc2ccc3[nH]ncc3c2c2c1CCCC2`, the concentration for half-maximal inhibition (IC50) on CDK2/Cyclin A1 is 180 nM; in experiment [1], 132 nM; in the experiment with K562, 9800 nM; in the experiment with MV4-11, 600 nM.
For `N#CC1CCc2c(c(-c3c[nH]nc3C(F)(F)F)nc3c(F)cc4[nH]ncc4c23)C1` (stereo not given), the concentration for half-maximal inhibition (IC50) against CDK2/Cyclin A1 was 111 nM; in experiment [1], 86 nM; in the experiment on K562, 8810 nM; with MV4-11, 123 nM.
As for `FC(F)(F)c1n[nH]cc1-c1nc2c(C(F)(F)F)cc3[nH]ncc3c2c2c1CCCC2`, the 50% inhibitory concentration (IC50) on CDK2/Cyclin A1 was found to be 107 nM; in experiment [1], 107 nM; with K562 it was 11100 nM; with MV4-11, 180 nM.
On to `FC(F)(F)c1n[nH]cc1-c1nc2ccc3sncc3c2c2c1CCCC2`, for which the IC50 against CDK2/Cyclin A1 is 5160 nM; in experiment [1], 8490 nM; in the experiment on K562, 56800 nM; in the experiment on MV4-11, 7350 nM.
For `Cn1cc(-c2nc3ccc4[nH]ncc4c3c3c2CCCC3)c(C(F)(F)F)n1`, the half-maximal inhibitory concentration (IC50) is 556 nM at CDK2/Cyclin A1, 549 nM in experiment [1], 10400 nM in the experiment on K562 and 500 nM with MV4-11.
Turning to `Cn1ncc2c3c4c(c(-c5c[nH]nc5C(F)(F)F)nc3ccc21)CCCC4`, the IC50 on CDK2/Cyclin A1 came to 3260 nM; in experiment [1] it was 1690 nM; in the experiment on K562, 44600 nM; with MV4-11, 2420 nM.
`FC(F)(F)c1n[nH]cc1-c1nc2c(Br)cc3[nH]ncc3c2c2c1CCCC2`: the half-maximal inhibitory concentration (IC50) on CDK2/Cyclin A1 is 10800 nM; in experiment [1], over 20000 nM; in the experiment with K562 it was over 100000 nM; in the experiment on MV4-11, 36300 nM.
In the case of `FC(F)(F)c1n[nH]cc1-c1nc2ccc3[nH]nnc3c2c2c1CCCC2`, the IC50 was determined as 1260 nM against CDK2/Cyclin A1, 408 nM in experiment [1], 87800 nM in the experiment with K562 and 400 nM with MV4-11.
The like results for `FC(F)(F)c1n[nH]cc1-c1nc2ccc3[nH]nc(I)c3c2c2c1CCCC2` were, in that order, 63 nM, 21 nM, 40100 nM and 1260 nM.
On to `FC(F)(F)c1n[nH]cc1-c1nc2ccc3[nH]nc(Cl)c3c2c2c1CCCC2`, for which the IC50 against CDK2/Cyclin A1 is 2320 nM; in experiment [1], 41 nM; in the experiment with K562 it was over 100000 nM; with MV4-11, 2490 nM.
`NC1CCc2c(c(-c3c[nH]nc3C(F)(F)F)nc3ccc4[nH]ncc4c23)C1` (stereo not given): the 50% inhibitory concentration (IC50) was 5970 nM against CDK2/Cyclin A1, 3140 nM in experiment [1], 66600 nM in the experiment on K562 and 3500 nM in the experiment with MV4-11.
With `CC(=O)NC1CCc2c(c(-c3c[nH]nc3C(F)(F)F)nc3ccc4[nH]ncc4c23)C1` (stereo not given), the IC50 at CDK2/Cyclin A1 was 320 nM; in experiment [1] it was 20 nM; in the experiment on K562, over 100000 nM; in the experiment with MV4-11 it was 920 nM.
Consider `FC(F)(F)c1n[nH]cc1-c1nc2c(N3CCCCC3)cc3[nH]ncc3c2c2c1CCCC2`, for which the IC50 came to 5740 nM at CDK2/Cyclin A1, 1250 nM in experiment [1], 20300 nM in the experiment with K562 and 2390 nM in the experiment with MV4-11.
For `OC1CCc2c(c(-c3c[nH]nc3C(F)(F)F)nc3ccc4[nH]ncc4c23)C1` (stereo not given), the half-maximal inhibitory concentration (IC50) against CDK2/Cyclin A1 was 20 nM; in experiment [1], 16 nM; in the experiment on K562, 22500 nM; in the experiment on MV4-11, 32 nM.
As to `CCc1c(C)c(-c2c[nH]nc2C(F)(F)F)nc2ccc3[nH]ncc3c12`, the IC50 against CDK2/Cyclin A1 was 46 nM; in experiment [1], 4 nM; with K562, 39100 nM; with MV4-11, 84 nM.
As for `Cc1n[nH]c2ccc3nc(-c4c[nH]nc4C(F)(F)F)c4c(c3c12)CCC(N)C4` (stereo not given), the half-inhibitory concentration (IC50) on CDK2/Cyclin A1 worked out at 640 nM; in experiment [1], 211 nM; in the experiment on K562 it was 53800 nM; in the experiment with MV4-11, 319 nM.
Regarding `Nc1ccc(-c2nc3ccc4[nH]ncc4c3c3c2CCCC3)cc1C(F)(F)F`, the IC50 is 237 nM against CDK2/Cyclin A1, 3120 nM in experiment [1], 21900 nM with K562 and 2940 nM in the experiment on MV4-11.
The like results for `c1n[nH]cc1-c1nc2ccc3[nH]ncc3c2c2c1CCCC2` were, in that order, 72 nM, 90 nM, 3930 nM and 330 nM.
For `CCOC(=O)C1CCc2c(c(-c3c[nH]nc3C(F)(F)F)nc3ccc4[nH]ncc4c23)C1` (stereo not given) the same measures were 111 nM, 118 nM, 6700 nM and 37 nM.
`Cn1cc(-c2nc3ccc4[nH]ncc4c3c3c2CCCC3)c(C2CC2)n1`: the concentration for half-maximal inhibition (IC50) was 1130 nM on CDK2/Cyclin A1, 3660 nM in experiment [1], 33800 nM in the experiment with K562 and 1300 nM in the experiment on MV4-11.
The like results for `Cc1n[nH]cc1-c1nc2c(F)cc3[nH]ncc3c2c2c1CCCC2` were, in that order, 17 nM, 7 nM, 3770 nM and 113 nM.
`O=C(O)C1CCc2c(c(-c3c[nH]nc3C(F)(F)F)nc3ccc4[nH]ncc4c23)C1` (stereo not given): the half-inhibitory concentration (IC50) at CDK2/Cyclin A1 was 1440 nM; in experiment [1], 563 nM; in the experiment on K562 it was over 100000 nM; in the experiment on MV4-11 it was 20000 nM.
In the case of `Cc1noc(C)c1-c1nc2ccc3[nH]ncc3c2c2c1CCCC2`, the IC50 came to 555 nM on CDK2/Cyclin A1, 2020 nM in experiment [1], 30800 nM in the experiment on K562 and 880 nM in the experiment with MV4-11.
As to `Cc1n[nH]c2ccc3nc(-c4c[nH]nc4C(F)(F)F)c4c(c3c12)CCC(C#N)C4` (stereo not given), the IC50 on CDK2/Cyclin A1 is 333 nM; in experiment [1], 15 nM; with K562, 9940 nM; with MV4-11 it was 12 nM.
As to `Fc1cc(F)cc(-c2cc(-c3c[nH]nc3C(F)(F)F)nc3ccc4[nH]ncc4c23)c1`, the IC50 against CDK2/Cyclin A1 was 469 nM; in experiment [1], over 20000 nM; with K562, over 100000 nM; with MV4-11 it was 52500 nM.
For the compound `[O-][S+]1CCc2c(c(-c3c[nH]nc3C(F)(F)F)nc3ccc4[nH]ncc4c23)C1` (stereo not given), the 50% inhibitory concentration (IC50) against CDK2/Cyclin A1 was 40 nM; in experiment [1] it was 17 nM; in the experiment with K562, 8600 nM; in the experiment on MV4-11, 24 nM.
For `FC(F)(F)c1n[nH]cc1-c1nc2ccc3[nH]ncc3c2c2c1CC(N1CCOCC1)CC2` (stereo not given) the same measures were 901 nM, 16 nM, 33000 nM and 550 nM.
Regarding `FC(F)(F)c1n[nH]cc1-c1nc2ccc3[nH]nc(Br)c3c2c2c1CCCC2`, the concentration for half-maximal inhibition (IC50) came to 325 nM against CDK2/Cyclin A1, 3 nM in experiment [1], 28900 nM in the experiment on K562 and 544 nM in the experiment on MV4-11.
Regarding `FC(F)(F)c1n[nH]cc1-c1nc2ccc3[nH]ncc3c2c2c1CCCCC2`, the IC50 against CDK2/Cyclin A1 worked out at 31 nM; in experiment [1], 3 nM; in the experiment with K562 it was 25100 nM; in the experiment on MV4-11 it was 76 nM.
